In the NIST ThermoML archive (doi:10.1016/j.tca.2010.05.016):
± gives the expanded uncertainty stated by the source.

Experiment: wn = mass fraction of the nth substance listed
Settings: 101 kPa, Liquid; for speed of sound: Vibrating Tube; for mass density: Vibrating tube method

O=C[C@H](O)[C@@H](O)[C@H](O)[C@H](O)CO [D-glucose] + O
Settings	mass density, 288.15 K [kg/m3]	mass density, 293.15 K [kg/m3]	mass density, 298.15 K [kg/m3]	mass density, 303.15 K [kg/m3]	mass density, 308.15 K [kg/m3]	speed of sound, 288.15 K [m/s]	speed of sound, 293.15 K [m/s]	speed of sound, 298.15 K [m/s]	speed of sound, 303.15 K [m/s]	speed of sound, 308.15 K [m/s]
w1 = 0.0206	–	1006.08 ± 0.047	1004.86 ± 0.047	1003.41 ± 0.046	1001.75 ± 0.045	1475.6 ± 3.3	–	–	1517.3 ± 3.3	1527 ± 3.3
w1 = 0.0396	1014.53 ± 0.061	1013.52 ± 0.06	1012.25 ± 0.06	1010.76 ± 0.059	–	1482.2 ± 3.3	1497.7 ± 3.3	1511.3 ± 3.3	1523 ± 3.3	1533 ± 3.3
w1 = 0.0591	1022.21 ± 0.079	1021.13 ± 0.079	1019.81 ± 0.078	1018.27 ± 0.077	1016.54 ± 0.076	1490 ± 3.3	1505.1 ± 3.3	1518.4 ± 3.3	1529.9 ± 3.3	1539.5 ± 3.3
